Our source for the Ki values is patent US6777422B2, “Substituted tetrahydroisoquinolines as C5a receptor modulators” (Neurogen Corp., priority 2002, dated 2004).

The first assay deals with T1, human C5a receptor (Homo sapiens, UniProt P21730).
T1 construct: endogenous in cells; host or cells: U937 cells differentiated with 1 mM dibutyryl cAMP
T1 sequence (P21730 1-350): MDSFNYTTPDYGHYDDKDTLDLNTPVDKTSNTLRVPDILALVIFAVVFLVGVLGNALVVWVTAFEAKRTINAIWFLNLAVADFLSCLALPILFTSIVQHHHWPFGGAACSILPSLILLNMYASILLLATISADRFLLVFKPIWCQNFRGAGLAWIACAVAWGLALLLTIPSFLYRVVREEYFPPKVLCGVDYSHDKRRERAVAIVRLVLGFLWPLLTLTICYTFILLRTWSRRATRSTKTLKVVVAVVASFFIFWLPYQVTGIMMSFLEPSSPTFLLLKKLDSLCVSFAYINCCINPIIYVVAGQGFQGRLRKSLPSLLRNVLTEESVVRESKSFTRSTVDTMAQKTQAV
The assay is described as follows: C5a receptor mediated calcium mobilization assay (Example 20). As to conditions: differentiated U937 cells, read-out: Ca2+ (Ki in the standard assay of C5a receptor mediated calcium mobilization). In kind it is cell-based. Here is the method: Calcium Mobilization Assays
U937 cells are grown in differentiation media (1 mM dibutyryl cAMP in RPMI 1640 medium containing 10% fetal bovine serum) for 48 hrs at 37° C. then reseeded onto 96-well plates suitable for use in a FLIPR™ Plate Reader (Molecular Devices Corp., Sunnyvale Calif.). Cells are grown an additional 24 hours (to 70-90% confluence) before the assay. The cells are then washed once with Krebs Ringer solution. FLUO-3 calcium sensitive dye (Molecular Probes, Inc. Eugene, Oreg.) is added to 10 μg/mL and incubated with the cells at room temperature for 1 to 2 hours. The 96 well plates are then washed to remove excess dye. Fluorescence responses, measured by excitation at 480 nm and emission at 530 nm, are monitored upon the addition of human C5a to the cells to a final concentration of 0.01-30.0 nM, using the FLIPR™ device (Molecular Devices).
C. Assays for the Identification of Receptor Modulatory Agents: Antagonists and Agonists
The calcium mobilization assay described above may be readily adapted for identifying test compounds that have agonist or antagonist activity at the human C5a receptor.
For example, in order to identify antagonist compounds, differentiated U937 cells are washed and incubated with Fluo-3 dye as described above. One hour prior to measuring the fluorescence signal, a subset of the cells is incubated with 1 μM of at least one compound to be tested. The fluorescence response upon the subsequent addition of 0.3 nM (final concentration) human recombinant C5a is monitored using the FLIPR™ plate reader. Antagonist compounds elicit at least a 2-fold decrease in the fluorescence response relative to that measured in the presence of human C5a alone. Preferred antagonist compounds elicit at least a 5-fold, preferably at least a 10-fold, and more preferably at least a 20-fold decrease in the fluorescence response relative to that measured in the presence of human C5a alone.
A general note: Calcium flux is commonly read through the fluorescence of an indicator in the cells.
Consider `Cc1ccc(C2c3ccccc3CCN2CC(=O)N(Cc2ccccc2F)C2Cc3ccccc3C2)cc1C` (centres unmarked) [Compound 35, N-(indan-2-yl)-2-[1-(3,4-dimethylphenyl)-3,4-dihydroisoquinolin-2(1H)-yl]-N-(2-fluorobenzyl)acetamide], for which the Ki is below 1 µM.
Still for that read-out and setting: the same measure for `CCc1ccccc1C1c2ccccc2CCN1CC(=O)N(Cc1ccccc1F)C1Cc2ccccc2C1` (centres unmarked) [Compound 29, N-(indan-2-yl)-2-[1-(2-ethylphenyl)-3,4-dihydroisoquinolin-2(1H)-yl]-N-(2-fluorobenzyl)acetamide]: below 1 µM.
The same measure, in the same setting: to `C[C@@H](C(=O)N(Cc1cccc(O)c1F)C1Cc2ccccc2C1)N1CCc2ccccc2[C@@H]1c1ccccc1Cl` [Compound 115, (2S)-2-[(1R)-1-(2-chlorophenyl)-3,4-dihydroisoquinolin-2(1H)-yl]-N-(indan-2-yl)-N-(2-fluoro-3-hydroxybenzyl)propanamide] belongs below 1 µM; to `Cc1ccc(C2c3ccccc3CCN2CC(=O)N(Cc2ccccc2F)C2Cc3ccccc3C2)cc1F` (centres unmarked) [Compound 61, N-(indan-2-yl)-N-(2-fluorobenzyl)-2-[1-(3-fluoro-4-methylphenyl)-3,4-dihydroisoquinolin-2(1H)-yl]acetamide], below 1 µM.
Same read-out and setting: to `Cc1cccc(C)c1C1c2ccccc2CCN1CC(=O)N(Cc1ccccc1F)C1Cc2ccccc2C1` (centres unmarked) [Compound 56, N-(indan-2-yl)-2-[1-(2,6-dimethylphenyl)-3,4-dihydroisoquinolin-2(1H)-yl]-N-(2-fluorobenzyl)acetamide] belongs below 1 µM; to `Cc1ccccc1[C@H]1c2ccccc2CCN1[C@@H](C)C(=O)N(Cc1ccccc1F)C1Cc2ccccc2C1` (stereo in doubt) [Compound 39, (2S)-N-(indan-2-yl)-N-(2-fluorobenzyl)-2-[(1S)-1-(2-methylphenyl)-3,4-dihydroisoquinolin-2(1H)-yl]propanamide], below 1 µM.
Consider `COc1ncccc1CN(Cc1ccccc1F)C(=O)[C@H](C)N1CCc2ccccc2[C@@H]1c1cccc2ccccc12` [Compound 122, (2S)-N-(2-fluorobenzyl)-N-[(2-methoxypyridin-3-yl)methyl]-2-[(1R)-1-(1-naphthyl)-3,4-dihydroisoquinolin-2(1H)-yl]propanamide], for which the Ki was below 1 µM.
As to `Cc1ccccc1[C@@H]1c2ccccc2CCN1[C@@H](C)C(=O)N(Cc1ccccc1F)C1Cc2ccccc2C1` [Compound 42, (2S)-N-(indan-2-yl)-N-(2-fluorobenzyl)-2-[(1R)-1-(2-methylphenyl)-3,4-dihydroisoquinolin-2(1H)-yl]propanamide], the Ki was below 1 µM.
In the case of `C[C@@H](C(=O)N(CCc1ccccc1)CCc1ccccc1F)N1CCc2ccccc2[C@@H]1c1ccccc1Cl` [Compound 108, (2S)-2-[(1R)-1-(2-chlorophenyl)-3,4-dihydroisoquinolin-2(1H)-yl]-N-[2-(2-fluorophenyl)ethyl]-N-(2-phenylethyl)propanamide], the Ki was below 1 µM.
Turning to `Cc1ccccc1[C@@H]1c2ccccc2CCN1CC(=O)N(Cc1ccccc1F)C1Cc2ccccc2C1` [Compound 26, N-(indan-2-yl)-N-(2-fluorobenzyl)-2-[(1R)-1-(2-methylphenyl)-3,4-dihydroisoquinolin-2(1H)-yl]acetamide], the Ki is below 1 µM.
Still for that read-out and setting: to `C[C@@H](C(=O)N(Cc1ccccc1F)C1Cc2ccccc2C1)N1CCc2ccccc2[C@@H]1c1ccccc1C(F)(F)F` [Compound 69, (2S)-N-(indan-2-yl)-N-(2-fluorobenzyl)-2-[(1R)-1-[2-(trifluoromethyl)phenyl]-3,4-dihydroisoquinolin-2(1H)-yl]propanamide] belongs below 1 µM.
Regarding `C[C@@H](C(=O)N(CCc1ccccc1)Cc1ccccc1F)N1CCc2ccccc2[C@@H]1c1ccccc1Cl` [Compound 91, (2S)-2-[(1R)-1-(2-chlorophenyl)-3,4-dihydroisoquinolin-2(1H)-yl]-N-(2-fluorobenzyl)-N-(2-phenylethyl)propanamide], the Ki was below 1 µM.
With `COC(=O)c1ccc(C2c3ccccc3CCN2CC(=O)N(Cc2ccccc2F)C2Cc3ccccc3C2)cc1` (centres unmarked) [Compound 76, methyl 4-(2-{2-[indan-2-yl(2-fluorobenzyl)amino]-2-oxoethyl}-1,2,3,4-tetrahydroisoquinolin-1-yl)benzoate], the Ki is below 1 µM.
In the case of `O=C(CN1CCc2ccccc2C1c1cccc2cccnc12)N(Cc1ccccc1F)C1Cc2ccccc2C1` (centres unmarked) [Compound 62, N-(indan-2-yl)-N-(2-fluorobenzyl)-2-(1-quinolin-8-yl-3,4-dihydroisoquinolin-2(1H)-yl)acetamide], the Ki is below 1 µM.
The same measure, in the same setting: the same measure for `C[C@@H](C(=O)N(Cc1c[nH]cn1)C1Cc2ccccc2C1)N1CCc2ccccc2[C@@H]1c1ccccc1Cl` [Compound 97, (2S)-2-[(1R)-1-(2-chlorophenyl)-3,4-dihydroisoquinolin-2(1H)-yl]-N-(indan-2-yl)-N-(1H-imidazol-4-ylmethyl)propanamide]: below 1 µM; for `C[C@@H](C(=O)N(Cc1cccc(O)c1)C1Cc2ccccc2C1)N1CCc2ccccc2[C@@H]1c1ccccc1Cl` [Compound 114, (2S)-2-[(1R)-1-(2-chlorophenyl)-3,4-dihydroisoquinolin-2(1H)-yl]-N-(indan-2-yl)-N-(3-hydroxybenzyl)propanamide]: below 1 µM.
Still for that read-out and setting: to `C[C@@H](C(=O)N(Cc1ccccc1)Cc1ccc(O)cc1Cl)N1CCc2ccccc2[C@@H]1c1ccccc1Br` [Compound 77, (2S)-N-benzyl-2-[(1R)-1-(2-bromophenyl)-3,4-dihydroisoquinolin-2(1H)-yl]-N-(2-chloro-4-hydroxybenzyl)propanamide] belongs below 1 µM; to `COc1cccc(CN(Cc2ccccc2F)C(=O)[C@H](C)N2CCc3ccccc3[C@@H]2c2cccc3ccccc23)n1` [Compound 125, (2S)-N-(2-fluorobenzyl)-N-[(6-methoxypyridin-2-yl)methyl]-2-[(1R)-1-(1-naphthyl)-3,4-dihydroisoquinolin-2(1H)-yl]propanamide], below 1 µM.
Same read-out and setting: the same measure for `C[C@@H](C(=O)N(Cc1cccc(C#N)c1)C1Cc2ccccc2C1)N1CCc2ccccc2[C@@H]1c1ccccc1Cl` [Compound 111, (2S)-2-[(1R)-1-(2-chlorophenyl)-3,4-dihydroisoquinolin-2(1H)-yl]-N-(3-cyanobenzyl)-N-(indan-2-yl)propanamide]: below 1 µM.
With `O=C(CN1CCc2ccccc2C1c1cc(F)ccc1C(F)(F)F)N(Cc1ccccc1F)C1Cc2ccccc2C1` (centres unmarked) [Compound 38, N-(indan-2-yl)-N-(2-fluorobenzyl)-2-[1-[5-fluoro-2-(trifluoromethyl)phenyl]-3,4-dihydroisoquinolin-2(1H)-yl]acetamide], the Ki was below 1 µM.
The same measure, in the same setting: the same measure for `Cc1ccccc1[C@@H]1c2c(C)cccc2CCN1CC(=O)N(Cc1ccccc1F)C1Cc2ccccc2C1` (stereo in doubt) [Compound 78, N-(indan-2-yl)-N-(2-fluorobenzyl)-2-[8-methyl-1-(2-methylphenyl)-3,4-dihydroisoquinolin-2(1H)-yl]acetamide]: below 1 µM.

The same assay, now with this note: differentiated U937 cells, unit inferred, read-out: Ca2+ (numeric value, C5a receptor mediated calcium mobilization).
On to `Cc1ccccc1C1CCCCN1CC(=O)N(Cc1ccccc1F)C1Cc2ccccc2C1` (centres unmarked) [Compound 129, N-(2-Fluoro-benzyl)-N-indan-2-yl-2-(2-o-tolyl-piperidin-1-yl)-acetamide], for which the Ki was 0.131 µM.
The same measure, in the same setting: to `Cc1ccccc1C1C(C)CCCN1CC(=O)N(Cc1ccccc1F)C1Cc2ccccc2C1` (centres unmarked) [Compound 128, N-(2-Fluoro-benzyl)-N-indan-2-yl-2-(3-methyl-2-o-tolyl-piperidin-1-yl)-acetamide] belongs 0.547 µM.
